Experimental data: ChEMBL document CHEMBL5331133, “Discovery of AZD4747, a Potent and Selective Inhibitor of Mutant GTPase KRASG12C with Demonstrable CNS Penetration” (J Med Chem, 2023)

Legend:
[1] = Lipophilicity, logD of compound at 7.4; conditions: octanol/water
[2] = […] stability in rat hepatocyte assessed as intrinsic clearance measured per million of cells; assay type: ADME, cell-based; conditions: hepatocytes
[3] = system: MDR1 and BCRP; test: (§1) Efflux ratio of apparent permeability in dog MDCK cells transfected with MDR1 and BCRP at 0.1 uM; assay type: ADME, cell-based, Canis lupus familiaris
[4] = target: GTPase KRas (Homo sapiens, UniProt P01116, G12C)
[5] = in vitro; conditions: human, liver microsomes, CLH
Description: (§2) Microsomal stability in human liver microsomes assessed as intrinsic clearance

[6] = Unbound brain-to-plasma concentration ratio in Wistar Han rat at 2.3 microM/Kg, iv and measured after 4 hrs; assay type: ADME, organism-based; conditions: read-out: K(p,uu,brain)
[7] = system: NCI-H358; test: Antiproliferative activity against human NCI-H358 cells harboring KRAS G12C mutant cultured as 3D spheroids assessed as reduction in cell proliferation incubated for 3 days by CellTiter-Glo 3D reagent based assay; assay type: functional; conditions: NCI-H358, 72 h
[8] = Dissociation constant, pKa of the compound; assay type: physicochemical
[9] = as §1; assay type: ADME, cell-based, Canis lupus familiaris; conditions: mdck, 0.1 µM
[10] = human, microsomes
Description: as §2

Chain of GTPase KRas (P01116 whole entry G12C): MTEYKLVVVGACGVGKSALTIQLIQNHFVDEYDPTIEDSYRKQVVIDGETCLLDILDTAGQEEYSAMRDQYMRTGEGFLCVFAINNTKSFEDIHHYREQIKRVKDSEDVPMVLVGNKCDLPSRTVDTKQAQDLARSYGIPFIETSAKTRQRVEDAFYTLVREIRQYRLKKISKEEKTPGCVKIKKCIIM

Structure (SMILES) | logD ([1]; pH 7.4, logD) | CLH [2] | efflux ratio at 0.1 µM [3] | IC50 [4] | microsomal CLint [5] | Kp uu at 4 h [6] | IC50 [7] | pKa [8] | logD ([1]; pH 7.4) | Ratio [9] | CLH [10]
C=CC(=O)N1CCN2Cc3cc(C#N)c(-c4c(O)cccc4Cl)c(F)c3OC[C@H]2C1 | 2.5 | 54 µL/min | 6.5 | 0.016 µM | 13 µL/min/mg | – | – | – | – | – | –
C=CC(=O)N1CCN2Cc3cc(OC(F)F)c(-c4c(O)cccc4Cl)c(F)c3OC[C@H]2C1 | 2.7 | 143 µL/min | – | 0.16 µM | 18 µL/min/mg | – | – | – | – | – | –
C=CC(=O)N1CCN(c2nc(=O)n(-c3c(C)ccnc3C(C)C)c3nc(-c4c(O)cccc4F)c(F)cc23)[C@@H](C)C1 [SOTORASIB] | 2.3 | 18 µL/min | – | – | 36 µL/min/mg | 0.01 | 0.001 µM | – | – | – | –
C=CC(=O)N1CCN2C(=O)c3cc(OCCOC)c(-c4c(O)cccc4Cl)c(F)c3OC[C@H]2C1 | 2 | 48 µL/min | – | 0.099 µM | 41 µL/min/mg | – | – | – | – | – | –
C=CC(=O)N1CCN2Cc3cc(OCCN(C)C)c(-c4c(O)cccc4Cl)c(F)c3OC[C@H]2C1 | 1 | 8 µL/min | 12.4 | 0.11 µM | 10 µL/min/mg | – | – | – | – | – | –
C=C(F)C(=O)N1CCN(c2nc(OC[C@@H]3CCCN3C)nc3c2CCN(c2cccc4cccc(Cl)c24)C3)C[C@@H]1CC#N [ADAGRASIB] | 3.6 | 12 µL/min | – | – | 80 µL/min/mg | 0.01 | 0.006 µM | – | – | – | –
C=CC(=O)N1CCN2Cc3cc(F)c(-c4c(O)cccc4F)c(Cl)c3OC[C@H]2C1 | 2.8 | 42 µL/min | 1.2 | 0.149 µM | 8 µL/min/mg | – | – | – | – | – | –
C=CC(=O)N1CCN2Cc3ccc(-c4c(C)ccc5[nH]ncc45)c(Cl)c3OC[C@H]2C1 | 3.2 | 156 µL/min | 0.4 | 0.332 µM | 86 µL/min/mg | 0.24 | – | – | – | – | –
C#Cc1cc(CN2CCN(C(=O)C=C)CC2)cc(F)c1-c1c(O)cccc1Cl | 3.2 | 38 µL/min | – | 13.6 µM | 18 µL/min/mg | – | – | – | – | – | –
C=CC(=O)N1CCN2Cc3cc(C4CC4)c(-c4c(O)cccc4Cl)c(F)c3OC[C@H]2C1 | 3.2 | 101 µL/min | – | 0.022 µM | 97 µL/min/mg | – | – | – | – | – | –
C=CC(=O)N1CCN2Cc3ccc(-c4c(C)ccc5[nH]ncc45)c(Cl)c3OC[C@@H]2C1 | 3.5 | 130 µL/min | 0.9 | 1.31 µM | > 294 µL/min/mg | 0.41 | – | – | – | – | –
C=CC(=O)N1CCN2Cc3cc(F)c(-c4c(O)cccc4Cl)c(F)c3OC[C@H]2C1.O | 2.8 | 20 µL/min | 0.7 | 0.043 µM | < 7 µL/min/mg | 0.11 | – | 3.9 | – | – | –
C=CC(=O)N1CCN2Cc3cc(F)c(-c4c(C)cccc4O)c(F)c3OC[C@H]2C1 | 2.4 | 29 µL/min | 1.2 | 0.09 µM | 19 µL/min/mg | 0.15 | – | – | – | – | –
C=CC(=O)N1CCN2Cc3cc(F)c(-c4c(O)cccc4F)c(F)c3OC[C@H]2C1 | 2.5 | 18 µL/min | – | 0.279 µM | 5 µL/min/mg | – | – | – | – | – | –
C=CC(=O)N1CCN2Cc3ccc(-c4c(O)cccc4F)c(Cl)c3OC[C@H]2C1 | – | 52 µL/min | 0.8 | 0.231 µM | 33 µL/min/mg | – | – | – | – | – | –
C=CC(=O)N1CCN2Cc3ccc(-c4c(C)ccc5[nH]ncc45)c(Cl)c3OCCC2C1 (stereo in doubt; 19) | 3.2 | 234 µL/min | 1.4 | 8.29 µM | 294 µL/min/mg | – | – | – | – | – | –
C=CC(=O)N1CCN2Cc3cc(Cl)c(-c4c(O)cccc4Cl)c(F)c3OC[C@H]2C1 | 3.2 | 44 µL/min | 0.6 | 0.029 µM | 17 µL/min/mg | – | – | – | – | – | –
C=CC(=O)N1CCN2c3ncnc4cc(-c5c(C)ccc6[nH]ncc56)c(Cl)c(c34)OC[C@@H]2C1 | – | 109 µL/min | – | – | 58 µL/min/mg | – | – | – | – | – | –
C=CC(=O)N1CCN2Cc3cc(OC)c(-c4c(O)cccc4Cl)c(F)c3OC[C@H]2C1 | 2.2 | 59 µL/min | 1.9 | 0.074 µM | 15 µL/min/mg | – | – | – | – | – | –
C=CC(=O)N1C[C@H]2CCOc3c(Cl)c(-c4c(O)cccc4F)c(F)c4ncnc(c34)N2C[C@H]1C | 3.2 | 41 µL/min | 37.2 | 0.003 µM | 26 µL/min/mg | 0.06 | – | – | – | – | –
C=CC(=O)N1CCN2Cc3ccc(-c4c(C)ccc5[nH]ncc45)c(Cl)c3OCCC2C1 (stereo in doubt; 20) | – | 97 µL/min | – | 4.01 µM | – | – | – | – | 3.3 | 2.1 | > 300 µL/min/mg
C=CC(=O)N1CCN2C(=O)c3ccc(-c4c(C)ccc5[nH]ncc45)c(Cl)c3OC[C@@H]2C1 | 2.8 | 93 µL/min | 1.4 | 4.3 µM | 54 µL/min/mg | – | – | – | – | – | –
C#Cc1cc2c(c(F)c1-c1c(O)cccc1Cl)OC[C@H]1CN(C(=O)C=C)CCN1C2 | 2.7 | 23 µL/min | 1 | 0.019 µM | 16 µL/min/mg | 0.05 | – | 3.9 | – | – | –
C=CC(=O)N1CCN2Cc3cc(OC4CC4)c(-c4c(O)cccc4Cl)c(F)c3OC[C@H]2C1 | 2.6 | 174 µL/min | – | 0.081 µM | 25 µL/min/mg | – | – | – | – | – | –
C=CC(=O)N1CCN(Cc2cc(F)c(-c3c(O)cccc3Cl)c(F)c2)CC1 | 3.3 | 122 µL/min | – | 7.82 µM | < 3 µL/min/mg | – | – | – | – | – | –
C=CC(=O)N1CCN2Cc3cc(C(F)F)c(-c4c(O)cccc4Cl)c(F)c3OC[C@H]2C1 | 3 | 99 µL/min | – | 0.13 µM | 63 µL/min/mg | – | – | – | – | – | –
